Experimental data taken from US10557124B2, “Compositions and methods for obtaining stem cell derived lung tissue, and related uses thereof” (The Regents of the University of Michigan, priority 2015, dated 2020).

Key:
[1] = system: anterior foregut endoderm (hESC-derived, ActivinA then NOG/SB); experiment: Immunofluorescence of NKX2.1 and PAX8 positive cells in foregut monolayer cultures; assay type: cell-based, human; settings: compared to endoderm and foregut controls
Method: Importantly, immunofluorescence correlated with QRT-PCR data showing an increased number of NKX2.1+ cells with the addition of SAG only. […] SAG and SAG+SU treated cells also co-expressed FOXA2 and SOX2 confirming their endodermal origin (FIG. 2).
(§1) After differentiation into definitive endoderm, foregut endoderm was differentiated, essentially as described (see, e.g., Green M D, et al., Nat Biotechnol. Nature Publishing Group; 2011 Feb. 27; 1-7). Briefly, cells were incubated in foregut media: Advanced DMEM/F12 plus N-2 and B27 supplement, 10 mM Hepes, lx L-Glutamine (200 mM), lx Penicillin-streptomycin (5,000 U/mL, all from Life Technologies) with 200 ng/mL Noggin (NOG, R&D Systems) and 10 μM SB431542 (SB, Stemgent) for 4 days. […]
HLOs with P63+ cells were counted as having proximal airway-like epithelium and HLOs with SFTPC+ cells were counted as having distal airway-like epithelium. The area of proximal epithelium was determined by P63+ECAD+ staining. Area was measured using ImageJ software. Cell quantification of NKX2.1, P63, and DAPI was counted by Metamorph cell counting software. FOXJ1, SFTPC, and HOPX were counted in ImageJ using the cell counter plugin.

[2] = system: anterior foregut endoderm (hESC-derived, ActivinA then NOG/SB); experiment: qRT-PCR of SHH, NKX2.1, PAX8 in foregut endoderm monolayer cultures treated with FGF/HH modulators; assay type: cell-based, human; settings: SAG 1 μM, SU 10 μM
Text: Many signaling pathways are important for lung induction and development (see, e.g., Wong A P, et al., Nat Biotechnol. 2012 Aug. 26; Huang S X L, et al., Nature; 2013 Dec. 1; 1-11; Firth A L, et al., Proceedings of the National Academy of Sciences. 2014 Apr. 29; 111(17):E1723-30; Mou H, et al., Cell Stem Cell. 2012 Apr. 6; 10(4):385-97; Ghaedi M, et al., J. Clin. Invest. 2013 Nov. 1; 123(11):4950-62; Longmire T A, et al., Cell Stem Cell. 2012 Apr. 6; 10(4):398-411; Rankin S A, Zorn A M. Gene Regulatory Networks Governing Lung Specification. J Cell Biochem. 2014 Mar. 19; Morrisey E E, et al., Developmental Cell. Elsevier Inc; 2010 Jan. 19; 18(1):8-23; Min H, et al., Genes & Development. 1998 Oct. 15; 12(20):3156-61; Weaver M, et al., Development. 2000 June; 127(12):2695-704). […] 2011 Feb. 3; 470(7332):105-9; Wells J M, et al., Development. 2014 February; 141(4):752-60; Motoyama J, et al., Nat Genet. 1998 September; 20(1):54-7) and Hh signaling is important for lung mesenchyme proliferation in vivo (see, e.g., Bellusci S, et al., Development. 1997 January; 124(1):53-63). […] It has been reported that approximately 85-95% of cells are endoderm, but a portion of the remaining cells are mesodermal and this small mesodermal population is maintained in the spheroids and organoids (see, e.g., Spence J R, et al., Nature. 2011 Feb. 3; 470(7332):105-9; McCracken K W, et al., Nature; 2014 Oct. 29; 1-19; Green M D, et al., Nat Biotechnol.; 2011 Feb. 27; 1-7) (FIG. 4). Therefore, based on mouse and hPSC studies, it was hypothesized that FGF and/or HH signaling would induce an NKX2.1+ lung lineage in anterior foregut endoderm. To test this hypothesis experiments initially focused on adherent endoderm monolayer cultures to optimize induction conditions. Cultures were treated for 4 days with ActivinA followed by an additional 4 days with NOG/SB (referred to as Foregut). Controls consisted of ActivinA treatment only followed by no additional growth factors (Endoderm controls), or ActivinA followed by NOG/SB, followed by no additional factors (Foregut controls). All experimental groups were compared to both endoderm and foregut controls (FIG. 6). The ability of FGF2 to induce SHH, NKX2.1 and PAX8 was first tested by exposing foregut cultures to low and high concentrations of FGF2 (50,500 ng/mL) (FIG. 6A). […] It was also observed that dual NOG/SB inhibition in endoderm cultures induced robust NKX2.1 and PAX8 expression without adding FGF2 (FIG. 1B, 6A). Thus, it was desired to determine if NKX2.1 expression in foregut cultures was due to endogenous FGF and/or HH signaling. To test this, the FGF or HH pathway was inhibited with small molecules SU5402 (SU, 10 μm) and Sant-2 (10 μm) respectively (FIG. 6B-C). Treating foregut cultures with the FGF inhibitor SU caused a significant, robust reduction in PAX8 and a modest reduction in SHH, while NKX2.1 expression was unchanged compared to foregut control (FIG. 6B). […] To test if HH signaling was able to induce NKX2.1 in foregut cultures, the Smoothened agonist, SAG (1 μM), was added to foregut cultures. The addition of SAG induced a 6.5 fold increase of NKX2.1 expression above foregut controls (FIG. 6D).
This combination caused an additional increase in NKX2.1 expression (21 fold vs. 6.5 fold with SAG only, when compared to foregut) and a concomitant decrease in PAX8 mRNA (FIG. 6D).
as §1

Compound: CNC1CCC(N(Cc2cccc(-c3ccncc3)c2)C(=O)c2sc3ccccc3c2Cl)CC1 (stereo not drawn) [SAG]
- NKX2.1+ cells (immunohistochemistry) [1]: more NKX2.1+ cells
- increase of NKX2.1 expression ([2]; foregut endoderm treated 8 days, compared to untreated foregut controls): 6.5 fold
- PAX8 expression ([2]; vs foregut control (FGF2: vs untreated endoderm controls), FGF2 50/500 ng/mL, Sant-2 10 μM): unchanged
